The values that follow are results of earlier work, collected in patent US8048850B2, “Covalent conjugates between artemisinin-related endoperoxides and iron-carrying proteins and methods of use” (University of Washington, priority 2002, dated 2011).

The conditions of the data set: cancer patient; oral dose of 50 mg per day; intramuscular dose of 60 mg/day; period of 9 months.

Take `C[C@H]1[C@H](OC(=O)CCC(=O)O)O[C@@H]2O[C@@]3(C)CC[C@H]4[C@H](C)CC[C@@H]1[C@@]24OO3` [artesunate]: the adverse side effects entry was “No apparent adverse side effects”.
